Data published in the NIST ThermoML archive (doi:10.1021/je7003758).
± gives the expanded uncertainty stated by the source.

Assay: xn = mol fraction of the nth substance listed
Conditions: 298.15 K, Liquid

ClCCCl [1,2-dichloroethane] + CN1CCCC1=O
mass density [kg/m3]
Conditions	x2 = 0.0993	x2 = 0.2025	x2 = 0.3012	x2 = 0.4029	x2 = 0.4975	x2 = 0.5832	x2 = 0.7037	x2 = 0.7984	x2 = 0.9029
100 kPa	1220.4 ± 0.5	1195.3 ± 0.5	1172.3 ± 0.5	1149.2 ± 0.4	1128.3 ± 0.4	1110 ± 0.4	1085.1 ± 0.4	1066.3 ± 0.3	1046.2 ± 0.3
500 kPa	1220.7 ± 0.6	1195.6 ± 0.5	1172.6 ± 0.5	1149.4 ± 0.4	1128.5 ± 0.4	1110.2 ± 0.4	1085.4 ± 0.4	1066.5 ± 0.3	1046.5 ± 0.3
1000 kPa	1221.2 ± 0.6	1196 ± 0.5	1173 ± 0.5	1149.8 ± 0.5	1128.9 ± 0.4	1110.5 ± 0.4	1085.7 ± 0.4	1066.8 ± 0.3	1046.7 ± 0.3
1500 kPa	1221.7 ± 0.6	1196.5 ± 0.6	1173.4 ± 0.5	1150.2 ± 0.5	1129.2 ± 0.4	1110.9 ± 0.4	1086 ± 0.4	1067.1 ± 0.3	1047 ± 0.3
2000 kPa	1222.1 ± 0.6	1196.9 ± 0.6	1173.7 ± 0.5	1150.6 ± 0.5	1129.6 ± 0.4	1111.2 ± 0.4	1086.3 ± 0.4	1067.4 ± 0.4	1047.3 ± 0.3
2500 kPa	1222.6 ± 0.6	1197.3 ± 0.6	1174.2 ± 0.5	1150.9 ± 0.5	1129.9 ± 0.5	1111.5 ± 0.4	1086.6 ± 0.4	1067.7 ± 0.4	1047.6 ± 0.3
2900 kPa	–	–	1174.5 ± 0.5	–	–	–	–	–	–
3000 kPa	1223 ± 0.7	1197.7 ± 0.6	–	1151.3 ± 0.5	1130.3 ± 0.5	1111.9 ± 0.4	1086.9 ± 0.4	1068 ± 0.4	1047.8 ± 0.3
3400 kPa	–	–	–	1151.6 ± 0.5	–	–	–	–	–
3500 kPa	1223.5 ± 0.7	1198.1 ± 0.6	1174.9 ± 0.6	–	1130.6 ± 0.5	–	1087.2 ± 0.4	1068.3 ± 0.4	1048.1 ± 0.3
3600 kPa	–	–	–	–	–	1112.2 ± 0.4	–	–	–
4000 kPa	1223.9 ± 0.7	1198.5 ± 0.6	1175.3 ± 0.6	1152 ± 0.5	1131 ± 0.5	1112.5 ± 0.4	1087.6 ± 0.4	1068.6 ± 0.4	1048.4 ± 0.3
4500 kPa	1224.4 ± 0.7	1198.9 ± 0.6	1175.7 ± 0.6	–	1131.3 ± 0.5	1112.8 ± 0.5	1087.8 ± 0.4	1068.8 ± 0.4	1048.6 ± 0.3
4600 kPa	–	–	–	1152.3 ± 0.5	–	–	–	–	–
5000 kPa	1224.8 ± 0.7	1199.3 ± 0.7	1176.1 ± 0.6	1152.8 ± 0.6	1131.6 ± 0.5	1113.2 ± 0.5	1088.1 ± 0.4	1069.1 ± 0.4	1048.9 ± 0.3
5500 kPa	1225.2 ± 0.7	1199.8 ± 0.7	1176.5 ± 0.6	1153.1 ± 0.6	1131.9 ± 0.5	1113.5 ± 0.5	1088.4 ± 0.4	1069.4 ± 0.4	1049.2 ± 0.3
6000 kPa	1225.7 ± 0.8	1200.2 ± 0.7	1176.9 ± 0.6	1153.5 ± 0.6	1132.4 ± 0.5	1113.8 ± 0.5	1088.7 ± 0.4	1069.7 ± 0.4	1049.4 ± 0.3
6500 kPa	1226.1 ± 0.8	1200.6 ± 0.7	1177.2 ± 0.7	1153.9 ± 0.6	1132.7 ± 0.5	1114.1 ± 0.5	1089 ± 0.4	1070 ± 0.4	1049.7 ± 0.4
6900 kPa	–	–	–	–	–	1114.4 ± 0.5	–	–	–
7000 kPa	1226.5 ± 0.8	1201 ± 0.7	1177.6 ± 0.7	1154.2 ± 0.6	1133 ± 0.5	–	1089.3 ± 0.4	1070.3 ± 0.4	1050 ± 0.4
7500 kPa	1227 ± 0.8	1201.4 ± 0.7	1178 ± 0.7	1154.6 ± 0.6	1133.3 ± 0.6	1114.8 ± 0.5	1089.6 ± 0.4	1070.5 ± 0.4	1050.2 ± 0.4
7900 kPa	–	–	–	–	1133.7 ± 0.6	–	–	–	–
8000 kPa	1227.4 ± 0.8	1201.8 ± 0.8	1178.4 ± 0.7	1154.9 ± 0.6	–	1115 ± 0.5	1089.9 ± 0.4	1070.9 ± 0.4	1050.6 ± 0.4
8500 kPa	1227.8 ± 0.9	1202.2 ± 0.8	1178.8 ± 0.7	1155.3 ± 0.6	1134.1 ± 0.6	1115.4 ± 0.5	1090.2 ± 0.5	1071.1 ± 0.4	1050.8 ± 0.4
8900 kPa	–	1202.6 ± 0.8	–	–	–	–	–	–	–
9000 kPa	1228.2 ± 0.9	–	1179.2 ± 0.7	1155.6 ± 0.7	1134.4 ± 0.6	1115.7 ± 0.5	1090.5 ± 0.5	1071.3 ± 0.4	1051.1 ± 0.4
9500 kPa	1228.6 ± 0.9	1203.1 ± 0.8	1179.6 ± 0.7	1156 ± 0.7	1134.7 ± 0.6	1116 ± 0.5	1090.8 ± 0.5	1071.6 ± 0.4	1051.3 ± 0.4
9900 kPa	–	–	1180 ± 0.8	–	1135 ± 0.6	–	–	–	–
10000 kPa	1229.2 ± 0.9	1203.6 ± 0.8	–	1156.4 ± 0.7	–	1116.4 ± 0.6	1091.1 ± 0.5	1072 ± 0.4	1051.7 ± 0.4
10500 kPa	1229.6 ± 0.9	1203.9 ± 0.8	1180.4 ± 0.8	1156.7 ± 0.7	1135.4 ± 0.6	1116.7 ± 0.6	1091.4 ± 0.5	1072.2 ± 0.4	1051.9 ± 0.4
10900 kPa	–	–	1180.7 ± 0.8	–	–	1117 ± 0.6	–	–	–
11000 kPa	1230 ± 1	1204.3 ± 0.9	–	1157.1 ± 0.7	1135.7 ± 0.6	–	1091.7 ± 0.5	1072.5 ± 0.4	1052.2 ± 0.4
11500 kPa	1230.4 ± 1	1204.6 ± 0.9	1181.1 ± 0.8	1157.5 ± 0.7	1136.1 ± 0.6	1117.4 ± 0.6	1092 ± 0.5	1072.8 ± 0.4	1052.4 ± 0.4
11900 kPa	–	–	–	–	1136.4 ± 0.7	–	–	–	–
12000 kPa	1230.8 ± 1	1205.1 ± 0.9	1181.5 ± 0.8	1157.8 ± 0.7	–	1117.7 ± 0.6	1092.3 ± 0.5	1073 ± 0.4	1052.7 ± 0.4
12500 kPa	1231.3 ± 1	1205.5 ± 0.9	1181.9 ± 0.8	1158.2 ± 0.7	1136.8 ± 0.7	1118 ± 0.6	1092.6 ± 0.5	1073.3 ± 0.5	1053 ± 0.4
13000 kPa	1231.7 ± 1	1205.9 ± 0.9	1182.2 ± 0.8	1158.5 ± 0.8	1137.1 ± 0.7	1118.3 ± 0.6	1092.8 ± 0.5	1073.6 ± 0.5	1053.2 ± 0.4
13400 kPa	–	–	–	–	1137.4 ± 0.7	–	–	–	–
13500 kPa	1232.1 ± 1	1206.2 ± 0.9	1182.6 ± 0.9	1158.8 ± 0.8	–	1118.5 ± 0.6	1093.2 ± 0.5	1073.9 ± 0.5	1053.5 ± 0.4
14000 kPa	1232.5 ± 1.1	1206.6 ± 1	1183 ± 0.9	1159.2 ± 0.8	1137.7 ± 0.7	1118.9 ± 0.6	1093.4 ± 0.5	1074.2 ± 0.5	1053.8 ± 0.4
14500 kPa	1232.9 ± 1.1	1207 ± 1	–	1159.5 ± 0.8	1138 ± 0.7	1119.2 ± 0.6	1093.7 ± 0.5	1074.4 ± 0.5	1054.1 ± 0.4
14600 kPa	–	–	1183.4 ± 0.9	–	–	–	–	–	–
15000 kPa	1233.3 ± 1.1	1207.4 ± 1	1183.7 ± 0.9	1159.8 ± 0.8	1138.4 ± 0.7	1119.4 ± 0.7	1094 ± 0.6	1074.8 ± 0.5	1054.3 ± 0.4
15400 kPa	–	–	–	–	–	1119.8 ± 0.7	–	–	–
15500 kPa	1233.7 ± 1.1	1207.8 ± 1	1184.1 ± 0.9	1160.2 ± 0.8	1138.7 ± 0.7	–	1094.3 ± 0.6	1075 ± 0.5	1054.6 ± 0.4
15900 kPa	–	1208.2 ± 1	–	–	–	1120 ± 0.7	–	–	–
16000 kPa	1234.2 ± 1.1	–	1184.4 ± 0.9	1160.5 ± 0.8	1139 ± 0.8	–	1094.6 ± 0.6	1075.3 ± 0.5	1054.8 ± 0.4
16500 kPa	1234.6 ± 1.2	1208.6 ± 1.1	1184.8 ± 1	1160.9 ± 0.9	1139.3 ± 0.8	1120.4 ± 0.7	1094.8 ± 0.6	1075.6 ± 0.5	1055.1 ± 0.4
17000 kPa	1235 ± 1.2	–	1185.1 ± 1	1161.2 ± 0.9	1139.7 ± 0.8	1120.7 ± 0.7	1095.1 ± 0.6	1075.9 ± 0.5	1055.3 ± 0.4
17100 kPa	–	1209 ± 1.1	–	–	–	–	–	–	–
17400 kPa	–	–	1185.4 ± 1	–	–	–	–	–	–
17500 kPa	1235.4 ± 1.2	1209.4 ± 1.1	–	1161.6 ± 0.9	1140 ± 0.8	1121 ± 0.7	1095.4 ± 0.6	1076.1 ± 0.5	1055.6 ± 0.4
17900 kPa	–	–	–	1161.8 ± 0.9	–	–	–	–	–
18000 kPa	1235.8 ± 1.2	1209.8 ± 1.1	1185.8 ± 1	–	1140.3 ± 0.8	1121.2 ± 0.7	1095.7 ± 0.6	1076.4 ± 0.5	1055.8 ± 0.4
18400 kPa	–	1210.2 ± 1.1	–	1162.2 ± 0.9	–	–	–	–	–
18500 kPa	1236.2 ± 1.2	–	1186.1 ± 1	–	1140.6 ± 0.8	1121.5 ± 0.7	1096 ± 0.6	1076.7 ± 0.5	1056.1 ± 0.4
19000 kPa	1236.6 ± 1.3	1210.6 ± 1.1	1186.6 ± 1	1162.6 ± 0.9	1140.9 ± 0.8	1121.9 ± 0.7	1096.3 ± 0.6	1077 ± 0.5	1056.4 ± 0.4
19400 kPa	–	–	–	–	1141.3 ± 0.8	–	–	–	–
19500 kPa	1237 ± 1.3	1211 ± 1.2	1186.9 ± 1.1	1163 ± 0.9	–	1122.2 ± 0.7	1096.6 ± 0.6	1077.2 ± 0.5	1056.6 ± 0.5
20000 kPa	1237.5 ± 1.3	1211.4 ± 1.2	1187.4 ± 1.1	1163.4 ± 1	1141.9 ± 0.9	1122.6 ± 0.8	1096.9 ± 0.6	1077.5 ± 0.5	1057.1 ± 0.5
